Legend:
[1] = target: T1, Type-1 angiotensin II receptor A (Rattus norvegicus, UniProt P25095); experiment: Displacement of [125I]Sar1,Ile8-Ang2 from AT1 receptor in Wistar rat hepatic membrane; format: cell membranes, Liver
T1 sequence (P25095 whole entry): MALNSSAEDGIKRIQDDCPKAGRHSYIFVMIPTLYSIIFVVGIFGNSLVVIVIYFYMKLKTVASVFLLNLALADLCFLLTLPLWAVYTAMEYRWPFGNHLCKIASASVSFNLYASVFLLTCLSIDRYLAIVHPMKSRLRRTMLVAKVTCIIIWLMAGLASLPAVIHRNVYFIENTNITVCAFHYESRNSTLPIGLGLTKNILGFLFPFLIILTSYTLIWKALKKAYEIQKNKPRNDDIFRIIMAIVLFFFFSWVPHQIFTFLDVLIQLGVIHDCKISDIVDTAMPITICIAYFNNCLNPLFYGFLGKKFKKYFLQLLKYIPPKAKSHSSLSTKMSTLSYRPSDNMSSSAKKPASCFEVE

[2] = Cmax in Sprague-Dawley rat at 15 mg/kg, po; format: ADME, organism-based; set-up: dose 15 mg/kg, route oral; settings: in vivo
[3] = Oral bioavailability in Sprague-Dawley rat at 15 mg/kg; format: ADME, organism-based; settings: in vivo
[4] = Tmax in Sprague-Dawley rat at 15 mg/kg, po; format: ADME, organism-based; set-up: dose 15 mg/kg, route oral; settings: in vivo
[5] = target: T2, Type-1 angiotensin II receptor (Oryctolagus cuniculus, UniProt P34976); experiment: Antagonist activity at AT1 receptor in Ang II-contracted rabbit aortic strips after 60 mins; settings: read-out: pA2 (converted)
T2 sequence (P34976 whole entry): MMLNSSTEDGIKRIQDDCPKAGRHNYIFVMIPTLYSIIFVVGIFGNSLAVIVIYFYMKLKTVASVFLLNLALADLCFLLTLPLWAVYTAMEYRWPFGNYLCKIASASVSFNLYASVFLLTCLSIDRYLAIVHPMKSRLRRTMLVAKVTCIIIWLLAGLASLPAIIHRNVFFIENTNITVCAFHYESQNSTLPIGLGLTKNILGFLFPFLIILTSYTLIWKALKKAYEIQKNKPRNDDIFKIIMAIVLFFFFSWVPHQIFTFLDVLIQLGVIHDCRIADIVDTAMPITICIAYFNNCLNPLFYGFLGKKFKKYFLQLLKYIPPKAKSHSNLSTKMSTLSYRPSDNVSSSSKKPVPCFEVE

[6] = Cmax in Sprague-Dawley rat at 5 mg/kg, iv; format: ADME, organism-based; set-up: dose 5 mg/kg, route intravenous; settings: in vivo
[7] = Half life in Sprague-Dawley rat at 15 mg/kg, po; format: ADME, organism-based; set-up: dose 15 mg/kg, route oral; settings: in vivo
[8] = AUC in Sprague-Dawley rat at 5 mg/kg, iv; format: ADME, organism-based; set-up: dose 5 mg/kg, route intravenous; settings: plasma
[9] = AUC in Sprague-Dawley rat at 15 mg/kg, po; format: ADME, organism-based; set-up: dose 15 mg/kg, route oral; settings: plasma
[10] = Half life in Sprague-Dawley rat at 5 mg/kg, iv; format: ADME, organism-based; set-up: dose 5 mg/kg, route intravenous; settings: in vivo
in vitro = settings: human, Caco-2
Description: Permeability from apical to basolateral side of human Caco-2 cell membrane

SMILES | IC50 [1] | other results
CCCCN1C(=O)C2(CCCC2)CC(=O)N1Cc1ccc(-c2ccccc2-c2nnn[nH]2)cc1 |  | Ki [1]: 80 nM
O=c1c2cccnc2n(Cc2ccc(-c3ccccc3-c3nn[nH]n3)cc2)n1Cc1ccccc1 | > 3000 nM | 
CC(C)Cn1c(=O)c2cccnc2n1Cc1ccc(-c2ccccc2-c2nn[nH]n2)cc1 | 2300 nM | 
CCC1c2ncccc2C(=O)N1Cc1ccc(-c2ccccc2-c2nn[nH]n2)cc1 (centres undefined) | > 10000 nM | 
CCCCn1c(=O)c2cc(F)c(Cl)nc2n1Cc1ccc(-c2ccccc2-c2nnn[nH]2)cc1 | 427 nM | 
O=C1c2cccnc2CN1Cc1ccc(-c2ccccc2-c2nn[nH]n2)cc1 | > 10000 nM | 
CCCn1c(=O)c2ccc(C)nc2n1Cc1ccc(-c2ccccc2-c2nnn[nH]2)cc1 | 291 nM | 
CCn1c(=O)c2ccc(C)nc2n1Cc1ccc(-c2ccccc2-c2nnn[nH]2)cc1 | 1870 nM | 
CCCCN1C(=O)C2(CCCC2)C(=O)N1Cc1ccc(-c2ccccc2-c2nn[nH]n2)cc1 |  | Ki [1]: 25 nM
CCCCN1C(=O)CC2(CCCC2)C(=O)N1Cc1ccc(-c2ccccc2-c2nn[nH]n2)cc1 |  | Ki [1]: 14 nM
CCCN1C(=O)c2cccnc2C1Cc1ccc(-c2ccccc2-c2nn[nH]n2)cc1 (centres undefined) | > 3000 nM | 
CCCCn1c(=O)c2ccc(Cl)nc2n1Cc1ccc(-c2ccccc2-c2nnn[nH]2)cc1 | 168 nM | 
CCCCn1c(=O)c2ccc(OC)nc2n1Cc1ccc(-c2ccccc2-c2nnn[nH]2)cc1 | 258 nM | 
CCCCn1nc(OCc2ccc(-c3ccccc3-c3nnn[nH]3)cc2)c2cccnc21 | 254 nM | 
CCCCn1c(=O)c2ccccc2n1Cc1ccc(-c2ccccc2-c2nnn[nH]2)cc1 | 598 nM | 
CCCCn1c2nc(Cl)ccc2c(=O)n1Cc1ccc(-c2ccccc2-c2nn[nH]n2)cc1 | 461 nM | 
CCCCn1c(=O)c2ccc(N3CCOCC3)nc2n1Cc1ccc(-c2ccccc2-c2nnn[nH]2)cc1 | 600 nM | 

More lines, main results first:

IC50 [1] | SMILES | other results
53 nM | CCCCCn1c(=O)c2cccnc2n1Cc1ccc(-c2ccccc2-c2nnn[nH]2)cc1 | 
146 nM | CCCn1nc(OCc2ccc(-c3ccccc3-c3nnn[nH]3)cc2)c2cccnc21 | 
18 nM | CCCCn1c(=O)c2cccnc2n1Cc1ccc(-c2ccccc2-c2nn[nH]n2)cc1 | Cmax [2]: 4100 ng/mL; bioavailability [3]: 80%; Tmax [4]: 30 min; Kb [5]: 10.5 nM; Cmax [6]: 6320 ng/mL; half-life [7]: 54 min; AUC [8]: 1410 ng·h/mL; AUC [9]: 3380 ng·h/mL; half-life [10]: 60 min; Papp A→B (in vitro): 1.78 ×10⁻⁶ cm/s
39 nM | CCCCn1c2ncccc2c(=O)n1Cc1ccc(-c2ccccc2-c2nnn[nH]2)cc1 | Kb [5]: 14.8 nM; Papp A→B (in vitro): 3.6 ×10⁻⁶ cm/s
114 nM | CCCCn1nc(OCc2ccc(-c3ccccc3-c3nn[nH]n3)cc2)c2cccnc2c1=O | 
154 nM | CCCC1c2ncccc2C(=O)N1Cc1ccc(-c2ccccc2-c2nn[nH]n2)cc1 (centres undefined) | 
124 nM | CC(C)CCn1c(=O)c2cccnc2n1Cc1ccc(-c2ccccc2-c2nnn[nH]2)cc1 | 
76 nM | CCCCn1c(=O)c2cc(Cl)cnc2n1Cc1ccc(-c2ccccc2-c2nnn[nH]2)cc1 | Papp A→B (in vitro): 10.8 ×10⁻⁶ cm/s
90 nM | CCCCn1c2nc(C)ccc2c(=O)n1Cc1ccc(-c2ccccc2-c2nn[nH]n2)cc1 | Papp A→B (in vitro): 8.7 ×10⁻⁶ cm/s
124 nM | CCCCn1c(=O)c2ccc(NC)nc2n1Cc1ccc(-c2ccccc2-c2nn[nH]n2)cc1 | 
0.8 nM | CCCc1nc2c(C)cc(C)nc2n1Cc1ccc(-c2ccccc2-c2nn[nH]n2)cc1 | 
70 nM | CCCCn1c(=O)c2cc(F)cnc2n1Cc1ccc(-c2ccccc2-c2nnn[nH]2)cc1 | 
108 nM | CCCn1c(=O)c2cccnc2n1Cc1ccc(-c2ccccc2-c2nnn[nH]2)cc1 | 
81 nM | CCCCn1c(=O)c2ccc(C)nc2n1Cc1ccc(-c2ccccc2-c2nnn[nH]2)cc1 | 
95 nM | CCCCC1c2ncccc2C(=O)N1Cc1ccc(-c2ccccc2-c2nn[nH]n2)cc1 (centres undefined) | Papp A→B (in vitro): 5.6 ×10⁻⁶ cm/s
6.9 nM | CCc1nc2c(C)cc(C)nc2n1Cc1ccc(-c2c(-c3nnn[nH]3)cnc3ccccc23)cc1 | 
0.4 nM | CCc1nc2c(C)cc(C)nc2n1Cc1ccc(-c2ccccc2-c2nnn[nH]2)cc1 [L-158809] | 

— ChEMBL document CHEMBL1145541 (J Med Chem, 2008)
